Test system: Amaranthus palmeri
Assay: field test, post-emergence spray, visual injury rating of Palmer amaranth (scale 0 to 100)
Assay type: in vivo
Conditions: 3 days after treatment, 0.25% by volume non-ionic surfactant (Induce), 185 liter/ha
Description: The following examples summarized in table 1 serve to illustrate the invention: • Dicamba was applied as Engenia™ herbicide [BAPMA salt - (bis(3-aminopropyl)methylamine))], while 2,4-DB was applied as the commercially available Butyrac® 200 (dimethylamine salt). Herbicides were applied at an appropriate weight of each product dissolved in 1 liter of water. All herbicide treatments were applied with 0.25% by volume of a non-ionic surfactant (Induce®; an adjuvant composition consisting of alkyl aryl polyoxyalkane ethers, alkanolamides, dimethyl siloxane and free fatty acids). The spray solution was applied by a CO2 powered backpack sprayer delivering the spray solution at a rate of 185 liter/ha. The spray solution was applied to a field naturally populated with Palmer amaranth (Amaranthus palmeri) with an average height of 4-6 inches in height, however, plants both larger and smaller plants were in the field at the time of application as well. Palmer amaranth was assessed for visual injury 3 days after treatment and injury was rated on a scale from 0 to 100, whereby 0 equals no herbicidal response and 100 equals complete control of the Palmer amaranth.

Molecule	herbicidal activity against Amaranthus palmeri (% control) found (Exp. No. 2, 2,4-DB 17.5 g/ha a.i.)	herbicidal activity against Amaranthus palmeri (% control) found (Exp. No. 3, 2,4-DB 35 g/ha a.i.)	herbicidal activity against Amaranthus palmeri (% control) found (Exp. No. 4, 2,4-DB 52.5 g/ha a.i.)	herbicidal activity against Amaranthus palmeri (% control) found (Exp. No. 1, dicamba 420 g/ha a.i.)
4-(2,4-dichlorophenoxy)butanoic acid [2,4-DB]	0%	5%	15%	
COc1c(Cl)ccc(Cl)c1C(=O)O [dicamba, 3,6-dichloro-2-methoxybenzoic acid]				60%

Source: patent EP3135113A1, “USE OF HERBICIDAL COMPOSITIONS FOR CONTROLLING UNWANTED VEGETATION” (BASF SE, priority 2015, dated 2017)
